In article PMC11862611 (RSC Medicinal Chemistry, 2025):

What was measured:
[1] = target: T1, LmjIPCS (Leishmania major, UniProt E9AFX2); test: HPTLC based LmjIPCS assay; assay type: biochemical; conditions: microsomes treated with 5 mM compound; NBD-C6-ceramide and PI
T1 construct: made in house
Excerpt: CF was originally selected from a screen for inhibitors of the sphingolipid synthase, (L. majIPCS) and to verify that this new analogue retained this profile we applied the same assays as used before. […] To support inhibition of the IPCS, the HPTLC biochemical assay described by Mina et al.[16] was employed. In this, using a microsomal preparation of the L. majIPCS, a fluorescent substrate NBD-C6-ceramide was combined with PI and the two drugs. Following the reaction, the product, NBD-C6-IPC, and residual starting material were separated via HPTLC and analysed by fluorescence spectroscopy.
°C and 5% CO2. Aliquots of resazurin solution (10 μL) were then added and the cells were incubated at 37 °C and 5% CO2 for 4 h. Cell-viability measurement was carried out using a fluorescence plate reader. […]
(§1) days. Infected ear thicknesses were measured once or twice a week with a caliper gauge, and the lesion sizes were expressed as the difference between the thickness of infected and non-infected ear. On day 41 animals were sacrificed and the fluorescence measured (485 - 528 nm) and parasite load quantified using a limiting dilution assay (LDA).
(§2) Data on lesion progression were analysed for statistical significance by using the Dunnett test as part of the one-way ANOVA (GraphPad Prism 8 software). […]
Product quantification was carried out using a fluorescence plate reader […]

[2] = target: T2, H1 (h) (antagonist radioligand) (Homo sapiens, UniProt P35367); test: radioligand displacement assay, H1; assay type: binding
T2 construct: purchased Eurofins (contract assay); host or cells: cell membrane homogenates
Procedure: (§3) 4.2.3.6. Radioligand Binding Assay (Supplemental Figure S3)
(§4) These assays were run by Eurofins under contract to LifeArc FR095-0011887. A representative protocol describing the human histamine H2 receptor (antagonist radioligand) assay is shown below.12 Cell membrane homogenates (24 µg protein) are incubated for 120 min at 22°C with 0.075 nM [125I]APT in the absence or presence of the test compound in a buffer containing 50 mM Na2HPO4/KH2PO4 (pH […]
(§5) 7.4) and 0.05% BSA. […] Following

[3] = system: L. amazonensis GFP promastigotes; test: mouse model of L. amazonensis infection (ear, IL dosing); assay type: in vivo, BALB/c mice; conditions: 1.2 mg kg^−1 IL twice a week for 4 weeks
Procedure: Consequently, we used IL dosing for this experiment. To enable direct comparison with CF, the same treatment regimen (dose of 1.2 mg kg^−1via IL injection twice a week for 4 weeks starting on DPI) was used for both compounds.
A Weight variation of mice during 28 days of treatment. B Progression of lesion thickness over 28 day treatment period. C Representative photographs of the infected ear for each group taken after completion of treatment, D parasite burden was evaluated by LDA on 36 days post infection. […]
In vivo assays were conducted as previously reported 1. Two month old BALB/c female mice, weighing 20 - 25 g and of approximately the same age were used for the study. For infection of mice, stationary phase GFP L. amazonensis promastigotes were collected, washed and suspended in sterile PBS. A volume of 10 μl of sterile PBS containing 2 x 10^6 parasites was injected into the right ear. […]
as §1, with “Infected” for “days. Infected”
as §2

[4] = system: L. major promastigotes (FV1) WT; test: anti-promastigote assay, L. major (resazurin); assay type: cell-based; conditions: Leishmania major; promastigote parasites (Table 1); read-out: L.mj EC50
Procedure: 4.2.3.1. Anti-promastigote assays
L. major promastigotes (FV1) WT, PX and Δ LCB2 in Schneider’s insect medium (100 μL at 1 × 106 mL−1) were incubated in 96-well plates with compounds in triplicate (amphotericin B and cycloheximide were used as positive controls, and untreated parasites with 1% DMSO as a negative control) at 26 °C for 48 h.
Resazurin Solution (10 μL) was then added and the plate incubated at 26 °C for 4 h prior to measurement using a fluorescence plate reader (555 - 585 nm). EC50 values were calculated using sigmoidal regression analysis (GraphPad Prism). […]
well-1 in a 24-well plate with round cover slips and incubated for 24 h at 37 °C and 5% CO2. […]

[5] = system: L. major PX promastigotes; test: on-target growth inhibition, add-back cell line (PX); assay type: cell-based, Leishmania major
[6] = target: T3, 5-HTB2 receptors (Homo sapiens, UniProt P41595); test: radioligand displacement assay, 5-HT2B; assay type: binding
T3 construct: purchased Eurofins (contract assay); host or cells: cell membrane homogenates
Procedure: as §3, §4, §5

T3 sequence (P41595 whole entry): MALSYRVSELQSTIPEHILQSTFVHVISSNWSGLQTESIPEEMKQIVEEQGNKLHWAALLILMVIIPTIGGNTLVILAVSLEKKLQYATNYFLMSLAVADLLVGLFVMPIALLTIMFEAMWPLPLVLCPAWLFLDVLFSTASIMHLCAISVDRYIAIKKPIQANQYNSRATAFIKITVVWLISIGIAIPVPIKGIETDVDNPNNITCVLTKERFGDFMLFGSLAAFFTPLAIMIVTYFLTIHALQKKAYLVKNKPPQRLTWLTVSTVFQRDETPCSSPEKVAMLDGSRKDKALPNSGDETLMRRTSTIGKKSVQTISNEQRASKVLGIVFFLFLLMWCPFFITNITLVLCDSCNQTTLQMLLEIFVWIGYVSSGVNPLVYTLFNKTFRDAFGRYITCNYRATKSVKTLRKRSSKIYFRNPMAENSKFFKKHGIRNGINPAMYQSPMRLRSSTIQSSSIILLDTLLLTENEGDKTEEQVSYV
T2 sequence (P35367 whole entry): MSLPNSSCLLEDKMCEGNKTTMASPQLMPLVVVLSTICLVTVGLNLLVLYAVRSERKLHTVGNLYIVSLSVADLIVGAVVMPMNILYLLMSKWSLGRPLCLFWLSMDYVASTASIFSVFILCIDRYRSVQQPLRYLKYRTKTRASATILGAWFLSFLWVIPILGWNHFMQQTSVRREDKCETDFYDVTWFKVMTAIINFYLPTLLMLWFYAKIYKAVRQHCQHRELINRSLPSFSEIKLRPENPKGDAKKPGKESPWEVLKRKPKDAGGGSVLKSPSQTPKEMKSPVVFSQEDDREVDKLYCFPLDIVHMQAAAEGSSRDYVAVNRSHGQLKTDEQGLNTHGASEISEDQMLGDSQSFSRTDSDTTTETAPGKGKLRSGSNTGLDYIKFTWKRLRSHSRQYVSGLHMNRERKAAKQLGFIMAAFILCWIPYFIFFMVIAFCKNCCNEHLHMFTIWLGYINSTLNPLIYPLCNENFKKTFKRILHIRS
T1 sequence (E9AFX2 whole entry): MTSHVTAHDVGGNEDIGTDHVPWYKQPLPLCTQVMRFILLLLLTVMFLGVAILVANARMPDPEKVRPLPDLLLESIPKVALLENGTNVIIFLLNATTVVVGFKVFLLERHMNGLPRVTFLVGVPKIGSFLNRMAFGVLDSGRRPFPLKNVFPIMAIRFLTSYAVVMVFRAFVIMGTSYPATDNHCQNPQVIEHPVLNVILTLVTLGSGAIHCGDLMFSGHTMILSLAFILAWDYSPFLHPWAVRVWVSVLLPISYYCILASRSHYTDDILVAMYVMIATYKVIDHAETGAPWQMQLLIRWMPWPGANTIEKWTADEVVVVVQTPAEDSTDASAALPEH

Structure (SMILES): C[C@H]1CCCN1CCCO[C@H](c1ccccc1)c1ccc(Cl)cc1 [38l]
- NBD-C6-IPC product formation (HPTLC) [1]: No product was observed
- effective binding, radioligand displacement, H1 [2]: > 40%
- lesion growth trends ([3]; 35 days post-infection): similar
- parasitaemia (parasite burden by LDA) versus untreated group ([3]; LDA 36 days post infection): statistically significant reduction
- EC50 [4]: 0.03 µM
- sensitivity in the add-back cell line (PX) [5]: Sensitivity was restored
- affinity, radioligand displacement, 5-HTB2 [6]: lower affinity
